Results taken from the supplement of paper PMC10307832.

Columns and labels:
Test in all cases: relative viability (nuclei count vs DMSO), 5 days (fraction); higher = more cells survive
NCI-H1666 = tested on: NCI-H1666
Outline: (§1)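 The day after seeding in 1536-well plates, lung cancer cell lines were treated by pin tool with a single drug, or with a fixed anchor-drug dose together with five library-drug doses (not always all listed) in √10 steps. After 5 days, a combined fix-and-stain solution (final 0.05% Triton X-100, 1% formaldehyde, 1 ug/ml Hoechst) was added. Nuclei counted on 4× images gave relative viability as treated counts over vehicle counts, reported as the median of duplicate plates.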

NCI-H441 = tested on: NCI-H441
Outline: as §1

NCI-H520 = tested on: NCI-H520
Outline: as §1

NCI-H2085 = tested on: NCI-H2085
Outline: as §1

NCI-H1944 = tested on: NCI-H1944
Outline: as §1

NCI-H358 = tested on: NCI-H358
Outline: as §1

NCI-H838 = tested on: NCI-H838
Outline: as §1

NCI-H322M = tested on: NCI-H322M
Outline: as §1

NCI-H650 = tested on: NCI-H650
Outline: as §1

EKVX = tested on: EKVX
Outline: as §1

NCI-H460 = tested on: NCI-H460
Outline: as §1

ChaGo-K-1 = tested on: ChaGo-K-1
Outline: as §1

SMILES: O=c1[nH]c2ccccc2n1C1CCN(CCCC(c2ccc(F)cc2)c2ccc(F)cc2)CC1 [Pimozide] + CCNC(=O)c1noc(-c2cc(C(C)C)c(O)cc2O)c1-c1ccc(CN2CCOCC2)cc1 [Luminespib] (partner 0.01 µM)
- relative viability (NCI-H1666; first compound 2.53 µM): 0.942
- relative viability (NCI-H1666; first compound 8 µM): 0.932
- relative viability (NCI-H441; first compound 0.08 µM): 0.413
- relative viability (NCI-H441; first compound 0.253 µM): 0.404
- relative viability (NCI-H441; first compound 0.8 µM): 0.332
- relative viability (NCI-H441; first compound 2.53 µM): 0.311
- relative viability (NCI-H441; first compound 8 µM): 0.3
- relative viability (NCI-H520; first compound 0.08 µM): 0.227
- relative viability (NCI-H520; first compound 0.253 µM): 0.219
- relative viability (NCI-H520; first compound 0.8 µM): 0.194
- relative viability (NCI-H520; first compound 2.53 µM): 0.227
- relative viability (NCI-H520; first compound 8 µM): 0.219
- relative viability (NCI-H2085; first compound 0.08 µM): 0.515
- relative viability (NCI-H2085; first compound 0.253 µM): 0.485
- relative viability (NCI-H2085; first compound 0.8 µM): 0.4
- relative viability (NCI-H2085; first compound 2.53 µM): 0.496
- relative viability (NCI-H2085; first compound 8 µM): 0.322
- relative viability (NCI-H1944; first compound 0.08 µM): 0.634
- relative viability (NCI-H1944; first compound 0.253 µM): 0.665
- relative viability (NCI-H1944; first compound 0.8 µM): 0.644
- relative viability (NCI-H1944; first compound 2.53 µM): 0.668
- relative viability (NCI-H1944; first compound 8 µM): 0.719
- relative viability (NCI-H358; first compound 0.08 µM): 0.317
- relative viability (NCI-H358; first compound 0.253 µM): 0.382
- relative viability (NCI-H358; first compound 0.8 µM): 0.333
- relative viability (NCI-H358; first compound 2.53 µM): 0.399
- relative viability (NCI-H358; first compound 8 µM): 0.206
- relative viability (NCI-H838; first compound 0.08 µM): 0.263
- relative viability (NCI-H838; first compound 0.253 µM): 0.379
- relative viability (NCI-H838; first compound 0.8 µM): 0.309
- relative viability (NCI-H838; first compound 2.53 µM): 0.296
- relative viability (NCI-H838; first compound 8 µM): 0.244
- relative viability (NCI-H322M; first compound 0.253 µM): 0.899
- relative viability (NCI-H322M; first compound 0.8 µM): 0.858
- relative viability (NCI-H322M; first compound 2.53 µM): 0.942
- relative viability (NCI-H322M; first compound 8 µM): 0.743
- relative viability (NCI-H650; first compound 0.08 µM): 0.765
- relative viability (NCI-H650; first compound 0.253 µM): 0.76
- relative viability (NCI-H650; first compound 0.8 µM): 0.838
- relative viability (NCI-H650; first compound 2.53 µM): 0.786
- relative viability (NCI-H650; first compound 8 µM): 0.765
- relative viability (EKVX; first compound 0.08 µM): 0.699
- relative viability (EKVX; first compound 0.253 µM): 0.86
- relative viability (EKVX; first compound 0.8 µM): 0.807
- relative viability (EKVX; first compound 2.53 µM): 0.909
- relative viability (EKVX; first compound 8 µM): 0.802
- relative viability (NCI-H460; first compound 0.08 µM): 0.0367
- relative viability (NCI-H460; first compound 0.253 µM): 0.0252
- relative viability (NCI-H460; first compound 0.8 µM): 0.0202
- relative viability (NCI-H460; first compound 2.53 µM): 0.0243
- relative viability (NCI-H460; first compound 8 µM): 0.0256
- relative viability (ChaGo-K-1; first compound 0.08 µM): 0.48
- relative viability (ChaGo-K-1; first compound 0.253 µM): 0.472
- relative viability (ChaGo-K-1; first compound 0.8 µM): 0.375
- relative viability (ChaGo-K-1; first compound 2.53 µM): 0.496
- relative viability (ChaGo-K-1; first compound 8 µM): 0.484
